One assay deals with T1, human MASP1 (Homo sapiens, UniProt P48740).
T1 construct: Ig-kappa secretion signal (N, cleaved yes); made in house; host or cells: HEK293 (ATCC No. CRL-1573)
T1 sequence (P48740 297-448): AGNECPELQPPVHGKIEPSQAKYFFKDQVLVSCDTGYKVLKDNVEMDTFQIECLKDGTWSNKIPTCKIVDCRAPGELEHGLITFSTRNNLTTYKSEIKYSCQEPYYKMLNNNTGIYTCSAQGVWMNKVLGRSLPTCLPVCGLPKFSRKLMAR
T1 sequence (P48740 449-699): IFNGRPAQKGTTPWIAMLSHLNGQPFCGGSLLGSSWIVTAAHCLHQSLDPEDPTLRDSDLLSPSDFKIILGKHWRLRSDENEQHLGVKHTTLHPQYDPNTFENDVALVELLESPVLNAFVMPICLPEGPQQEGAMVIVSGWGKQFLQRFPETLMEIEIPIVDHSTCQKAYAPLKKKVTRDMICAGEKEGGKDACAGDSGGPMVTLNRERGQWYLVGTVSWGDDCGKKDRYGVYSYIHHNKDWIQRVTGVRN
Put plainly: Biochemical human MASP1 assay (FRET substrate). The note with it: average IC50. The text has this: (§1) 2.1 Recombinant Expression and Protein Production of Recombinant Human MASP1 and MASP2 Active Proteases.
(§2) The MASP1 or MASP2 expression vectors were transfected into the HEK293 (ATCC No. CRL-1573) cell line using Lipofectamine LTX® Reagent (Thermo-Fischer), as described by the manufacturer. […] The MASP1 and MASP2 proteins were purified from the conditioned media by affinity chromatography on Ni-NTA Superflow resin (Qiagen) as described by the manufacturer.
2.2 Biochemical Human MASP1 Assay
(§3) Recombinant human MASP1 enzyme produced in the HEK 293 cells was diluted in the reaction buffer (50 mM HEPES pH 8,0; 100 mM NaCl; 0.01% CHAPS; 0.5 mM Gluthathione) to the concentration of 20 nM and 25 μl was transferred into each single well of 384-well white microtiter plate (Greiner Bio One 781075). 1 μl of the inhibitor compound solution (dissolved in DMSO, at the corresponding concentration) or pure DMSO as a control was added to the same wells. […] The microtiter plate was incubated for 60-120 min at the temperature of 32 C. The increase of fluorescence intensity was measured in appropriate fluorescence plate reader (e.g. TECAN Ultra) using excitation wavelength of 320 nm and emission wavelength of 420 nm. IC50 values were calculated from percentage of inhibition of human MASP1 activity as a function of test compound concentration.

The next assay deals with Human C3-[…]. Kind of assay: C3 deposition assay, human serum on mannan-coated plates. In kind it is biochemical. The note with it: average IC50, read-out: Human C3-DEPOSITION SERUM IC50. As for the experimental part:
(§4) 3. C3 Deposition Assay (Human, Rat, Mouse, Dog, Mini-Pig)
(§5) The C3 deposition assay was conducted essentially as described (reference). Multi well plates (Greiner-Nunc 384 Maxi Sorp #464718) were coated over night with Mannan from Saccharomyces cerevisiae (Sigma M7504, 10 μg/mL in 0.05 M carbonate-bicarbonate buffer, pH 9.6) at 4° C. Wells were washed three times with TBS and subsequently incubated for 2 hours with 50 μL of 1% bovine serum albumin (BSA) in Tris-buffered saline (TBS) at 37° C. in order to block non-specific binding. After this step and each of the following incubation steps wells were washed three times with C3 wash buffer (TBS; 0.05% Tween 20; 5 mM CaCl2). […] When appropriately developed the color reaction was stopped by addition of 25 μL of stop solution (Sigma S5814) and quantified on a photometer by measuring absorption at a wavelength of 450 nm. Antibodies were diluted in C3 wash buffer supplemented with 0.5% BSA.

The target of another assay is T2, rat MASP1 (Rattus norvegicus, UniProt Q8CHN8).
T2 construct: Ig-kappa secretion signal (N, cleaved yes); made in house; host or cells: HEK293 (ATCC No. CRL-1573)
T2 sequence (Q8CHN8 302-453 limits assumed): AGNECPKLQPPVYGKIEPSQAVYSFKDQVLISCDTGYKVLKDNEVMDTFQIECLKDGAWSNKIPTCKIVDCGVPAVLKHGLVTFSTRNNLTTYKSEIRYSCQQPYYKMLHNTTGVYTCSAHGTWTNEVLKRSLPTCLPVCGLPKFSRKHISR
T2 sequence (Q8CHN8 454-704 limits assumed): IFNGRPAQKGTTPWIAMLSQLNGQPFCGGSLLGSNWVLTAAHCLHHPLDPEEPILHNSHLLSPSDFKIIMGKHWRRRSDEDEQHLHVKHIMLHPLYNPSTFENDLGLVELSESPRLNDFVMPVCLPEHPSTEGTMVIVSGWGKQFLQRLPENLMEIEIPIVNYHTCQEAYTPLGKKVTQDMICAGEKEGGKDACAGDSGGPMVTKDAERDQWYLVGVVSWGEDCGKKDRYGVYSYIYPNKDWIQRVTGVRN
Kind of assay: Biochemical rat MASP1 assay (FRET substrate). The note with it: average IC50; recombinant rat MASP1, FRET substrate. An excerpt: (§6) 4. Biochemical Rat MASP-1 and MASP-2 Assay
(§7) 4.1 Recombinant Expression and Protein Production of Recombinant Human and Rat MASP1 and MASP2 Active Proteases.
A truncated cDNA sequence of rat MASP1 encoding the fragment corresponding to the amino acids 302-704 with an C-terminal His Tag and N-terminal Ig-kappa secretion signal (SEQ ID No: 4) was subcloned into the mammalian expression vector pcDNA3.1 (Invitrogen).
(§8) The MASP1 or MASP2 expression vectors were transfected into the HEK293 (ATCC No. CRL-1573) cell line using Lipofectamine LTX® Reagent (Thermo-Fischer), as described by the manufacturer. The mature form of the recombinant rat MASP1 and MASP2 proteases were secreted into the culture medium. The MASP1 and MASP2 proteins were purified from the conditioned media by affinity chromatography on Ni-NTA Superflow resin (Qiagen) as described by the manufacturer.
4.2 Biochemical Rat MASP1 Assay.
Recombinant rat MASP1 enzyme produced in the HEK 293 cells was diluted in the reaction buffer (50 mM HEPES pH 8,0; 100 mM NaCl; 0.01% CHAPS; 0.5 mM Gluthathione) to the concentration of 4 nM and 25 μl was transferred into each single well of 384-well white microtiter plate (Greiner Bio One 781075). 1 μl of the inhibitor compound solution (dissolved in DMSO, at the corresponding concentration) or pure DMSO as a control was added to the same wells. The enzymatic reaction was initiated by addition of 25 μl of 40 μM solution of the FRET substrate Dabcyl-[…]-Glu(Edans)-NH2 (SEQ ID NO: 8); (Dabcyl—4-((4-(dimethylamino)phenyl)azo)benzoic acid; Edans—5-[(2-Aminoethyl) amino]naphthalene-1-sulfonyl; custom synthesis by Jerini Peptide Technologies, Berlin) in the reaction buffer. The microtiter plate was incubated for 60-120 min at the temperature of 32 C. The increase of fluorescence intensity was measured in appropriate fluorescence plate reader (e.g. TECAN Ultra) using excitation wavelength of 340 nm and emission wavelength of 490 nm. IC50 values were calculated from percentage of inhibition of rat […] activity as a function of test compound concentration.

The target of a further assay is T3, rat MASP2 (Rattus norvegicus, UniProt Q9JJS8).
T3 construct: Ig-kappa secretion signal (N, cleaved yes); made in house; host or cells: HEK293 (ATCC No. CRL-1573)
T3 sequence (Q9JJS8 296-443): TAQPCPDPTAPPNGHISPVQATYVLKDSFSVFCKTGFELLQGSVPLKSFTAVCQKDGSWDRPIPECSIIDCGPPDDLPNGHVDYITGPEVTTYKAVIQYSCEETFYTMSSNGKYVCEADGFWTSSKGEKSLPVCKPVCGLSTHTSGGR
T3 sequence (Q9JJS8 444-685): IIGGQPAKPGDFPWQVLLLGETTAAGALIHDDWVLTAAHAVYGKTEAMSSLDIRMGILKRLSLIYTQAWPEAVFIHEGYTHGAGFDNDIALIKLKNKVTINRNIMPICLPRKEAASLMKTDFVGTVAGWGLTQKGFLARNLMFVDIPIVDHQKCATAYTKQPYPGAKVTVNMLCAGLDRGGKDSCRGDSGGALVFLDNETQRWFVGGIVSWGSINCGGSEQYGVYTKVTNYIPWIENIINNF
Put plainly: Biochemical rat MASP2 assay (FRET substrate). The note with it: average IC50; recombinant rat MASP2, FRET substrate.
Source text: as §6, §7, §8
4.3 Biochemical Rat MASP2 Assay.
Recombinant rat MASP2 enzyme produced in the HEK 293 cells was diluted in the reaction buffer (50 mM HEPES pH 8,0; 100 mM NaCl; 0.01% CHAPS; 0.5 mM Gluthathione) to the concentration of 20 nM and 25 μl was transferred into each single well of 384-well white microtiter plate (Greiner Bio One 781075). 1 μl of the inhibitor compound solution (dissolved in DMSO, at the corresponding concentration) or pure DMSO as a control was added to the same wells. The enzymatic reaction was initiated by addition of 25 μl of 30 μM solution of the FRET substrate Abz-IEGRTSED-(Lys)Dnp-NH2 (SEQ ID NO: 9); (ABZ—2-aminobenzoyl; DNP_2,4-dinitrophenyl; custom synthesis by Jerini Peptide Technologies, Berlin) in the reaction buffer. The microtiter plate was incubated for 60-120 min at the temperature of 32 C. The increase of fluorescence intensity was measured in appropriate fluorescence plate reader (e.g. TECAN Ultra) using excitation wavelength of 320 nm and emission wavelength of 420 nm. IC50 values were calculated from percentage of inhibition of rat […] activity as a function of test compound concentration.

A further assay relates to rat C3-[…]. Kind of assay: C3 deposition assay, rat serum on mannan-coated plates. In kind it is biochemical. The note with it: average IC50. As for the experimental part: as §4, §5
The target of a further assay is T4, human MASP2 (Homo sapiens, UniProt O00187).
T4 construct: Ig-kappa secretion signal (N, cleaved yes); made in house; host or cells: HEK293 (ATCC No. CRL-1573)
T4 sequence (O00187 297-444): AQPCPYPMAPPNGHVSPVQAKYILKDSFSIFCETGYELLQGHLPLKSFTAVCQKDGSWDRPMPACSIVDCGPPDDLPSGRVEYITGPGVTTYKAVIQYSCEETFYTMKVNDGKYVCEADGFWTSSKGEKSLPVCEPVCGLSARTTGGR
T4 sequence (O00187 445-686): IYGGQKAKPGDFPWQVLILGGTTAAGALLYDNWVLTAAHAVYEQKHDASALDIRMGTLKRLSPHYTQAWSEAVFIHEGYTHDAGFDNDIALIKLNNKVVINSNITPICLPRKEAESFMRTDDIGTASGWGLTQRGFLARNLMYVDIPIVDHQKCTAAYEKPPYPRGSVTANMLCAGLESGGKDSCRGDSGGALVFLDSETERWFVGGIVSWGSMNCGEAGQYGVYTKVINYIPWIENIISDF
Put plainly: Biochemical human MASP2 assay (FRET substrate). The note with it: average IC50.
Source text: as §1, §2
2.3 Biochemical Human MASP2 Assay
as §3, with “MASP2” for “MASP1”, “340” for “320”, “490” for “420”

These results are taken from patent publication US11667675B2, “MASP inhibitory compounds and uses thereof” (Bayer Aktiengesellschaft, priority 2019, dated 2023).

Counter-ions that a name gives are not always drawn. Bridge positions count the residues as written; N and C are the ends. Square brackets hold non-standard residues; d marks the D form. Peptide text beside a SMILES is read from it. PEG9 = NCCOCCOCCOCCOCCOCCOCCOCCOCCOCCC(=O)O; tBuAla = CC(C)(C)C[C@H](N)C(=O)O; Pen = CC(C)(S)[C@H](N)C(=O)O; NMeC = CN[C@@H](CS)C(=O)O; Sar = CNCC(=O)O

One may read the IC50 as the concentration that gives 50% inhibition.

Regarding `CCC(C)[C@H](NC(=O)[C@H]1NC(=O)[C@H]([C@@H](C)CC)NC(=O)[C@@H]2C[C@@H]3CCCC[C@@H]3N2C(=O)[C@@H]2CCCN2C(=O)[C@H](CC(C)C)NC(=O)[C@H](CO)NC(=O)[C@H](CCCNC(=N)N)NC(=O)[C@H](CO)NC(=O)[C@@H](NC(=O)[C@@H](NC(=O)[C@H](C)NC)[C@@H](C)CC)CSSC1(C)C)C(=O)N1CCC[C@H]1C(=O)N[C@@H](CC(=O)NCc1ccccc1)C(N)=O` (stereo in doubt) [Example 462], the IC50 was determined as 12 nM against human MASP1, 61 nM in the assay with Human C3-[…], 160 nM on rat MASP1 and 150 nM at rat MASP2.

For `CC[C@H](C)[C@H](NC(=O)[C@H](C)N)C(=O)N[C@H]1CSSC(C)(C)[C@@H](C(=O)N[C@H](C(=O)N2CCC[C@H]2C(=O)N[C@@H](CC(=O)O)C(=O)O)[C@@H](C)CC)NC(=O)[C@H]([C@@H](C)CC)NC(=O)[C@@H]2C[C@@H]3CCCC[C@@H]3N2C(=O)[C@@H]2CCCN2C(=O)[C@H](CC(C)C)NC(=O)[C@H](CO)NC(=O)[C@H](CCCNC(=N)N)NC(=O)[C@H](CO)NC1=O` [Example 29, AIC+SRSLP-(Oic)-I-(Pen)+IPD-OH (HCl Salt)], the half-inhibitory concentration (IC50) against human MASP1 turned out to be 2.45 nM; with Human C3-[…] it was 6.99 nM; on rat MASP1, 10.5 nM; at rat MASP2, 17.4 nM; with rat C3-[…], 196 nM.

On to `CC[C@H](C)[C@H](NC(=O)CNC)C(=O)N[C@H]1CSSC(C)(C)[C@@H](C(=O)N[C@H](C(=O)N2CCC[C@H]2C(=O)NCCOCCOCCOCCOCCOCCOCCOCCOCCOCCC(N)=O)[C@@H](C)CC)NC(=O)[C@H]([C@@H](C)CC)NC(=O)[C@@H]2CCCN2C(=O)[C@@H]2CCCN2C(=O)[C@H](CC(C)(C)C)NC(=O)[C@H](CO)NC(=O)[C@H](CCCNC(=N)N)NC(=O)[C@H](CO)NC1=O` [Example 44, ((N-Me)G)-IC+SRS-((tBu)A)-PPI-(Pen)+IP-(PEG9(31 Atoms))-NH2] (H-[Sar]ICSRS[tBuAla]PPI[Pen]IP[PEG9]-NH2; disulfide 3-11), for which the 50% inhibitory concentration (IC50) against human MASP2 is 73 nM; in the assay with Human C3-[…] it was 68.5 nM; on rat MASP1 it was 87 nM; at rat MASP2, 35 nM.

Regarding `CC[C@H](C)[C@H](NC(=O)[C@H](C)N)C(=O)N[C@H]1CSSC[C@@H](C(=O)N[C@H](C(=O)N2CCC[C@H]2C(=O)N[C@@H](CC(=O)O)C(N)=O)[C@@H](C)CC)N(C)C(=O)[C@H]([C@@H](C)CC)NC(=O)[C@@H]2CCCN2C(=O)[C@@H]2CCCN2C(=O)[C@H](CC(C)(C)C)NC(=O)[C@H](CO)NC(=O)[C@H](CCCNC(=N)N)NC(=O)[C@H](CO)NC1=O` [Example 48, AIC+SRS-((tBu)A)-PPI-((N-Me)C)+IPD-NH2] (H-AICSRS[tBuAla]PPI[NMeC]IPD-NH2; disulfide 3-11), the IC50 stood at 1.95 nM on human MASP1, 225 nM against human MASP2, 102 nM with Human C3-[…] and 51.5 nM at rat MASP1.

In the case of `CC[C@H](C)[C@H](NC(=O)[C@H](C)N)C(=O)N[C@H]1CSSC(C)(C)[C@@H](C(=O)N[C@H](C(=O)N2CCC[C@H]2C(=O)N[C@@H](CC(=O)O)C(N)=O)[C@@H](C)CC)NC(=O)[C@H]([C@@H](C)CC)NC(=O)[C@@H]2C[C@@H]3CCCC[C@@H]3N2C(=O)[C@@H]2CCCN2C(=O)[C@H](CC(C)C)NC(=O)[C@H](CO)NC(=O)[C@H](CCCNC(=N)N)NC(=O)[C@H](CO)NC1=O` [Example 75, AIC+SRSLP-(Oic)-I-(Pen)+IPD-NH2], the IC50 against human MASP1 is 2.23 nM; in the assay on Human C3-[…] it was 32 nM; at rat MASP1, 35 nM; at rat MASP2 it was 34.9 nM; in the assay on rat C3-[…] it was 183 nM.

For “AIC+SRSLP-(Oic)-I-(Pen)+IPD-NH2 [Example 27]”, the IC50 with Human C3-[…] is 8.5 nM; in the assay with rat C3-[…] it was 146 nM.

With “AIC+SRSLP-(Oic)-I-(Pen)+IPD-OH [Example 5]”, the IC50 with Human C3-[…] was found to be 10.3 nM; in the assay on rat C3-[…] it was 214 nM.
